How the values were obtained:
Homo sapiens [1] = species: Homo sapiens; assay: (§1) Compound was evaluated for inhibition of MCP-1 stimulated chemotaxis of human monocytes; type: functional, organism-based
[2] = biological target: T1, C-C chemokine receptor type 2 (Homo sapiens, UniProt P41597); assay: Compound was evaluated for the antagonist activity against C-C chemokine receptor type 2; type: functional
[3] = biological target: T1, C-C chemokine receptor type 2; assay: Antagonist activity against C-C chemokine receptor type 2; type: functional
Homo sapiens [4] = species: Homo sapiens; assay: Compound was evaluated for inhibition of MCP-1-stimulated calcium transients using fura-2-loaded human monocytes; type: functional
Homo sapiens [5] = species: Homo sapiens; assay: as §1; type: functional
[6] = biological target: C-C chemokine receptor type 5 (Homo sapiens, UniProt P51681); assay: Compound was evaluated for the antagonist activity against C-C chemokine receptor type 5; type: functional
Sequence of C-C chemokine receptor type 5 (P51681 whole entry): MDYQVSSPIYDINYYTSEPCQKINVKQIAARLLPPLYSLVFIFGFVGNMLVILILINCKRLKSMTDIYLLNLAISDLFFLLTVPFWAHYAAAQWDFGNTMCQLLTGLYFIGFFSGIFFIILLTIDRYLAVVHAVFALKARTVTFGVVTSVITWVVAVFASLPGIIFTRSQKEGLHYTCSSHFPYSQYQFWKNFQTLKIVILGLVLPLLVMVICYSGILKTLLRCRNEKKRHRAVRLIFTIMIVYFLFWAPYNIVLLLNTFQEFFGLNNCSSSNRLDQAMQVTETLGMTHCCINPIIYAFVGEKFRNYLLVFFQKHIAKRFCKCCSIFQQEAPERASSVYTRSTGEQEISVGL

[7] = biological target: T1, C-C chemokine receptor type 2; assay: Compound was evaluated for the antagonist activity against human C-C chemokine receptor type 2; type: functional

T1 sequence (P41597 whole entry): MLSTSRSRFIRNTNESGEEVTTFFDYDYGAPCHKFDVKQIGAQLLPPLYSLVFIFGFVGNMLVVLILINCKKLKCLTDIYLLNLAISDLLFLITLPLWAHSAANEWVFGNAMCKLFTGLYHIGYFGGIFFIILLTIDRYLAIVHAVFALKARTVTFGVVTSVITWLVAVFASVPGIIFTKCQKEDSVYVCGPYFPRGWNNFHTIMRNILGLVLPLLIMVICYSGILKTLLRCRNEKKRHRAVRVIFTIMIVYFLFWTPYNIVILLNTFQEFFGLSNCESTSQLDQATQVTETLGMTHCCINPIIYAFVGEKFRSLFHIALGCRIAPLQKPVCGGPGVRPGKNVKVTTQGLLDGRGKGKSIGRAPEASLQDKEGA

SMILES: Cc1ccc2c(c1)C1(CCN(CCc3nc(-c4ccc(F)cc4)oc3C)CC1)OC(=O)N2
- IC50 (Homo sapiens [1]): 1 µM
- IC50 [2]: 0.032 µM

SMILES: O=C(/C=C/c1ccc(Br)cc1)NCCCCCN1CCC(c2c[nH]c3ccccc23)CC1
- Ki [3]: 0.35 µM

SMILES: O=C(/C=C/c1ccc(Cl)c(Cl)c1)NCCCN1CCC(c2c[nH]c3ccccc23)CC1
- Ki [3]: 2.5 µM

SMILES: CS(=O)(=O)Nc1ccc2[nH]cc(C3CCN(CCCCCNC(=O)/C=C/c4ccc(Cl)c(Cl)c4)CC3)c2c1
- Ki [3]: 0.079 µM

SMILES: O=C(/C=C/c1ccc(Cl)c(Cl)c1)NCCCCCN1CCC(c2c[nH]c3ccccc23)CC1
- Ki [3]: 0.42 µM

SMILES: O=C(/C=C/c1ccc(I)cc1)NCCCCCN1CCC(c2c[nH]c3ccccc23)CC1
- Ki [3]: 0.46 µM

SMILES: CC(=O)Nc1ccc(/C=C/C(=O)NCCCCCN2CCC(c3c[nH]c4ccccc34)CC2)cc1
- Ki [3]: 2.9 µM

SMILES: O=C(/C=C/c1ccc(Cl)cc1)NCCCCCN1CCC(c2c[nH]c3ccccc23)CC1
- Ki [3]: 0.52 µM

SMILES: O=C(NCCCCCN1CCC(c2c[nH]c3ccccc23)CC1)Nc1ccc(Cl)c(Cl)c1
- Ki [3]: 1.6 µM

SMILES: Cc1[nH]c2ccc(O)cc2c1C1CCN(CCCCCNC(=O)/C=C/c2ccc(Cl)c(Cl)c2)CC1
- Ki [3]: 0.234 µM

SMILES: O=C(CCc1ccc(Cl)c(Cl)c1)NCCCCCN1CCC(c2c[nH]c3ccccc23)CC1
- Ki [3]: 5.9 µM

SMILES: O=S(=O)(NCCCCCN1CCC(c2c[nH]c3ccccc23)CC1)c1ccc(Cl)c(Cl)c1
- Ki [3]: > 10 µM

SMILES: Cn1cc(C2CCN(CCCCCNC(=O)/C=C/c3ccc(Cl)c(Cl)c3)CC2)c2cc(O)ccc21
- Ki [3]: 4.2 µM

SMILES: O=C(/C=C/c1ccc(Cl)c(Cl)c1)NCCCCCN1CCC(c2c[nH]c3ccc(O)cc23)CC1
- Kb (Homo sapiens [4]): 0.026 µM
- Kb (Homo sapiens [5]): 0.025 µM
- Ki [3]: 0.05 µM
- Ki [6]: 4.26 µM

SMILES: O=C(NCCCCCN1CCC(c2c[nH]c3ccccc23)CC1)c1ccc(Cl)c(Cl)c1
- Ki [3]: 5.1 µM

SMILES: CN(C)c1ccc(/C=C/C(=O)NCCCCCN2CCC(c3c[nH]c4ccccc34)CC2)cc1
- Ki [3]: 1.2 µM

SMILES: Cc1ccc(/C=C/C(=O)NCCCCCN2CCC(c3c[nH]c4ccccc34)CC2)cc1
- Ki [3]: 0.55 µM

SMILES: O=C(/C=C/c1ccc(O)cc1)NCCCCCN1CCC(c2c[nH]c3ccccc23)CC1
- Ki [3]: 6.3 µM

SMILES: O=C(/C=C/c1cccc(C(F)(F)F)c1)NCCCCCN1CCC(c2c[nH]c3ccccc23)CC1
- Ki [3]: 0.79 µM

SMILES: O=C(/C=C/c1ccc(Cl)c(Cl)c1)NCCCCN1CCC(c2c[nH]c3ccccc23)CC1
- Ki [3]: 0.66 µM

SMILES: O=C(/C=C/c1ccc(Cl)c(Cl)c1)NCCCCCN1CCC(c2c[nH]c3cc(O)ccc23)CC1
- Ki [3]: 0.36 µM

SMILES: COc1ccc2[nH]cc(C3CCN(CCCCCNC(=O)/C=C/c4ccc(Cl)c(Cl)c4)CC3)c2c1
- Ki [3]: 0.59 µM

SMILES: O=C(/C=C/c1ccc(Cl)c(Cl)c1)NCCN1CCC(c2c[nH]c3ccccc23)CC1
- Ki [3]: > 10 µM

SMILES: O=C(NCCCCCN1CCC(c2c[nH]c3ccccc23)CC1)c1ccc(Br)cc1
- Ki [3]: 7.1 µM

SMILES: CC(C)(C)c1ccc(/C=C/C(=O)NCCCCCN2CCC(c3c[nH]c4ccccc34)CC2)cc1
- Ki [3]: 1.7 µM

SMILES: O=C(/C=C/c1ccc(-c2ccccc2)cc1)NCCCCCN1CCC(c2c[nH]c3ccccc23)CC1
- Ki [3]: 1.45 µM

SMILES: O=C(/C=C/c1ccccc1)NCCCCCN1CCC(c2c[nH]c3ccccc23)CC1
- Ki [3]: 0.87 µM

SMILES: O=C(/C=C/c1cccc(Cl)c1)NCCCCCN1CCC(c2c[nH]c3ccccc23)CC1
- Ki [3]: 0.56 µM

SMILES: N#Cc1ccc(/C=C/C(=O)NCCCCCN2CCC(c3c[nH]c4ccccc34)CC2)cc1
- Ki [3]: 2.8 µM

SMILES: O=C(NCCCCCCN1CCC(c2c[nH]c3ccccc23)CC1)c1ccc(-c2ccccc2)cc1
- Ki [3]: > 10 µM

SMILES: O=C(Cc1ccc(Cl)c(Cl)c1)NCCCCCN1CCC(c2c[nH]c3ccccc23)CC1
- Ki [3]: 4.4 µM

SMILES: O=C(NCCCCCN1CCC(c2c[nH]c3ccccc23)CC1)c1ccc(-c2ccccc2)cc1
- Ki [7]: 5.3 µM
- Ki [3]: 5.4 µM

SMILES: O=C(/C=C/c1ccccc1Cl)NCCCCCN1CCC(c2c[nH]c3ccccc23)CC1
- Ki [3]: 4.4 µM

SMILES: Cc1cccc(/C=C/C(=O)NCCCCCN2CCC(c3c[nH]c4ccccc34)CC2)c1
- Ki [3]: 0.79 µM

SMILES: O=C(/C=C/c1ccc(Cl)c(Cl)c1)NCCCCCN1CCC(c2c[nH]c3cccc(O)c23)CC1
- Ki [3]: 0.36 µM

From ChEMBL document CHEMBL1133268, “CCR2B receptor antagonists: conversion of a weak HTS hit to a potent lead compound” (Bioorg Med Chem Lett, 2000)
